Key:
[1] = Body weight changes in SW480 xenograft study; format: in vivo, NOD/SCID mice; settings: day-17; oral BID*BIW, 45 mg/kg days 1-10, 50 mg/kg days 11-22
Protocol: NOD/SCID mice of circa 23 g of weight were inoculated with 1×10^7 SW480 human colorectal cancer cells in 50% Matrigel™ subcutaneously in a flank. A pair match was performed when tumors reached an average volume of 100-150 mm^3 to distribute animals into treatment group and vehicle control (n=8/group). Tumor volumes (expressed in mm^3) were measured twice weekly using a caliper on days 1, 4, 8, 11, 15, 18, 22 and 23 of the treatment period. (A) The average TVol (±standard error of mean (SEM)) of each treatment group are shown. […] (B) Changes in BW in percentage (expressed in g, ±SEM) on days 1, 4, 8, 11, 15, 18, 22 and 23 of the treatment period. (C) Changes in vehicle- and Example 13-treated TVol expressed in mm^3. TVol ratio of Example 13-treated vs vehicle control (T/C) is indicated.
Female 8-9 weeks of age NOD/SCID mice of about 23 g of weight were used for the study (Jiangsu GemPharmatech Co., Ltd). Mice were inoculated subcutaneously in the flank region with 1×10^7 SW480 cells in PBS mixed with Matrigel™ (1:1) in a final injection volume of 0.2 mL/mouse. Once tumors reached an average size of 100-150 mm^3, a pair match was carried out to distribute mice to the different treatment groups. […]
Tumor volumes (expressed in mm^3) were measured in two dimensions using a caliper on days 1, 4, 8, 11, 15, 18, 22 and 23 of the treatment period. […]

CAL-51 cells = test: CAL-51 proliferation assay; format: cell-based; settings: Homo sapiens, CAL-51, 72 h, YO-PRO-1 Iodide readout
Outline: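 Cells seeded at 750 per well, treated next day for 72 h at 37 °C with 0.5% final DMSO. Cell number read by YO-PRO-1 fluorescence after lysis, normalized to DMSO (100%) and time-zero cells (0%). GI50 from 4-parameter logistic fit, maximum constrained to 100%.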

recombinant human CLK3 = molecular target: T1, recombinant human CLK3 (Homo sapiens, UniProt P49761); test: CLK3 kinase assay (LANCE Ultra); format: biochemical; settings: CLK3 0.5 nM, ATP 300 μM, 3 hours at 30° C.
T1 construct: purchased Thermo Fisher Scientific PV3826
T1 sequence (P49761 whole entry): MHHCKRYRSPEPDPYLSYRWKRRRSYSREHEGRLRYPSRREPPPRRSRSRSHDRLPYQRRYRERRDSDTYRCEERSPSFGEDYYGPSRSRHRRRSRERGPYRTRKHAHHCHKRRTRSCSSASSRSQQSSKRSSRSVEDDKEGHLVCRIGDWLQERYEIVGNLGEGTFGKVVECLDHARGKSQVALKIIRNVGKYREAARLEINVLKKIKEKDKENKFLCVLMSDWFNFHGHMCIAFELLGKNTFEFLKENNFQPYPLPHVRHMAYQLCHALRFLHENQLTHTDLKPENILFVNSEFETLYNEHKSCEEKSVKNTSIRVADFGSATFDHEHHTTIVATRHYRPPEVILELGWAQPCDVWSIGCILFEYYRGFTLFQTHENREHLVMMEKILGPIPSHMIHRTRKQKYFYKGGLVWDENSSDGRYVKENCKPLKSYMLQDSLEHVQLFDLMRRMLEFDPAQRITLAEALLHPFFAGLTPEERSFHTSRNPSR
Outline: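 Recombinant human CLK3 (0.5 nM) with ULight-CREBtide (50 nM) and 300 μM ATP, 3 h at 30 °C in kinase buffer; EDTA stop, then Eu-anti-phospho-CREB antibody (2 nM, 1 h RT), TR-FRET read at 665/620 nm. Inhibition normalized to DMSO and no-ATP wells; IC50 from 4-parameter fit, ten 1:3 concentrations in duplicate.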

IC50 (recombinant human CLK3): 30 to 100 nM
SMILES: COCCN(C)c1c(O[C@H]2CC[C@H](N)CC2)ccc2c1CC(C)(C)c1c(N)ncnc1-2 [Example 13, 8-(trans-4-aminocyclohexoxy)-N7-(2-methoxyethyl)-N7,5,5-trimethyl-6H-benzo[h]quinazoline-4,7-diamine]
maximal body weight loss [1]: 5%
GI50 (CAL-51 cells): < 100 nM

From patent US20260159486A1, “BENZO[H]QUINAZOLINE-4-AMINE DERIVATIVES FOR THE TREATMENT OF CANCER” (Redona Therapeutics, Inc., priority 2021, published 2026)
